Source: ChEMBL document CHEMBL1926587, “Molecular insights into human monoamine oxidase (MAO) inhibition by 1,4-naphthoquinone: evidences for menadione (vitamin K3) acting as a competitive and reversible inhibitor of MAO” (Bioorg Med Chem, 2011)
Active and inactive are the calls of the source. No cut-off for these calls is given here.

Columns and labels:
[1] = biological target: T1, Amine oxidase [flavin-containing] A (Homo sapiens, UniProt P21397); experiment: Competitive inhibition of human MAO-A
T1 sequence (P21397 whole entry): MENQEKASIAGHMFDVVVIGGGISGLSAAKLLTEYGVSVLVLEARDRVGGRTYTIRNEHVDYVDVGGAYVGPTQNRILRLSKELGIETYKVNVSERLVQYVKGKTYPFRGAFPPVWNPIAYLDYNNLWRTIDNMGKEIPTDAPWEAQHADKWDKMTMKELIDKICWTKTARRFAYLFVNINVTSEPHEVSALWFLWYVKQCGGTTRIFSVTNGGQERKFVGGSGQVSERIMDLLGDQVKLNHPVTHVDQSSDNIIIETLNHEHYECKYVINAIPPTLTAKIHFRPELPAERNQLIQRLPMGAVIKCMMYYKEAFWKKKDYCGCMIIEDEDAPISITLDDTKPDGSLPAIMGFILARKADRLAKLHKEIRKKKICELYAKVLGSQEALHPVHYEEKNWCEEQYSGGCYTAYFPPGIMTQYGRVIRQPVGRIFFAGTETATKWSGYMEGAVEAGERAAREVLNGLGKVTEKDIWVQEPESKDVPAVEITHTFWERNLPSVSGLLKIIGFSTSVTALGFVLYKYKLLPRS

[2] = biological target: T2, Amine oxidase [flavin-containing] B (Homo sapiens, UniProt P27338); experiment: Competitive inhibition of human MAO-B
T2 sequence (P27338 whole entry): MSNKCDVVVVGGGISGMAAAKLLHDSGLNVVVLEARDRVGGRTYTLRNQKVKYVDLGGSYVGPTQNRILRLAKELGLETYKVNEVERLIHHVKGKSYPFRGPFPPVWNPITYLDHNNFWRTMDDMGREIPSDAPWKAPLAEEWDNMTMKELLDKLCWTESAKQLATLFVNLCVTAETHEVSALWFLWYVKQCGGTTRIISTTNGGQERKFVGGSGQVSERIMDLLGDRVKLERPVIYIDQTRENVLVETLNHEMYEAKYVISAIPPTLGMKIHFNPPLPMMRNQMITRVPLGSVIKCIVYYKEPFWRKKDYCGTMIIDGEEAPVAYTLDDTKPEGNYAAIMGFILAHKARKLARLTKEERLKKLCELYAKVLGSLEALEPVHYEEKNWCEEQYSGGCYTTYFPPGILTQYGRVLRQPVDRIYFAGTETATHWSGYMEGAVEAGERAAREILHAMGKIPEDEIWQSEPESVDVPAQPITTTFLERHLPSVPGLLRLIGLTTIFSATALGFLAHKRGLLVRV

[3] = species on record: Rattus norvegicus; experiment: Selectivity ratio of Ki for rat MAO-A to Ki for rat MAO-B
[4] = species on record: Homo sapiens; experiment: Selectivity ratio of Ki for human recombinant MAO-A to Ki for human recombinant MAO-B
[5] = biological target: T2, Amine oxidase [flavin-containing] B; experiment: Competitive inhibition of human recombinant MAO-B expressed in baculovirus infected insect cells assessed as reduction in fluorescence at 10 to 12 uM by spectrofluorimetry relative to control; parameters: scale not given: the % may be the effect or the level left
[6] = biological target: T1, Amine oxidase [flavin-containing] A; experiment: Competitive inhibition of human recombinant MAO-A expressed in baculovirus infected insect cells using p-tyramine as substrate by Lineweaver-Burk plot analysis
[7] = biological target: T2, Amine oxidase [flavin-containing] B; experiment: Competitive inhibition of human recombinant MAO-B expressed in baculovirus infected insect cells using benzylamine as substrate by Lineweaver-Burk plot analysis
[8] = biological target: T2, Amine oxidase [flavin-containing] B; experiment: Reversible inhibition of human recombinant MAO-B expressed in baculovirus infected insect cells assessed as decrease in Km at 5 uM preincubated for 20 mins measured 3 hrs post dialysis by Lineweaver-Burk plot analysis
[9] = biological target: T2, Amine oxidase [flavin-containing] B; experiment: Competitive inhibition of human recombinant MAO-B expressed in baculovirus infected insect cells assessed as increase in Km at 5 uM by Lineweaver-Burk plot analysis
[10] = biological target: T1, Amine oxidase [flavin-containing] A; experiment: Competitive inhibition of human recombinant MAO-A expressed in baculovirus infected insect cells assessed as increase in Km at 5 uM by Lineweaver-Burk plot analysis
[11] = test system: Armoracia rusticana; experiment: Inhibition of horseradish peroxidase at 100 uM after 45 mins by amplex red assay in the presence of hydrogen peroxide
[12] = biological target: T1, Amine oxidase [flavin-containing] A; experiment: Reversible inhibition of human recombinant MAO-A expressed in baculovirus infected insect cells assessed as decrease in Km at 5 uM preincubated for 20 mins measured 3 hrs post dialysis by Lineweaver-Burk plot analysis
[13] = biological target: T1, Amine oxidase [flavin-containing] A; experiment: Noncompetitive inhibition of human recombinant MAO-A expressed in baculovirus infected insect cells using p-tyramine as substrate by Lineweaver-Burk plot analysis
[14] = biological target: T1, Amine oxidase [flavin-containing] A; experiment: Noncompetitive inhibition of human recombinant MAO-A expressed in baculovirus infected insect cells assessed as reduction in Vmax at 5 uM by Lineweaver-Burk plot analysis
[15] = biological target: T2, Amine oxidase [flavin-containing] B; experiment: Competitive inhibition of human recombinant MAO-B expressed in baculovirus infected insect cells assessed as reduction in fluorescence at 20 to 25 uM by spectrofluorimetry relative to control; parameters: scale not given: the % may be the effect or the level left
[16] = biological target: T1, Amine oxidase [flavin-containing] A; experiment: Reversible inhibition of human recombinant MAO-A expressed in baculovirus infected insect cells assessed as increase in Vmax at 5 uM preincubated for 20 mins measured 3 hrs post dialysis by Lineweaver-Burk plot analysis

Compound | Ratio Ki [3] | Ratio Ki [4] | Ki [7] [µM] | inhibition (INH) [8] | inhibition (INH) [9] | inhibition [11] | other results
CC1=C(C)C(=O)c2cc(C)ccc2C1=O |  |  |  |  |  |  | Ki [1]: 6 µM; Ki [2]: 3 µM
C#CCN(C)[C@H](C)Cc1ccccc1 | 250 | 250 |  |  |  |  | 
C#CCN[C@@H]1CCc2ccccc21 | 93 | 50 |  |  |  |  | 
CC1=CC(=O)c2ccccc2C1=O [MENADIONE] |  | 60 | 0.4 | Active | Active | inactive | Activity [5]: 50%; Ki [6]: 26 µM; inhibition (INH) [10]: Active; inhibition (INH) [12]: Active
O=C1C=CC(=O)c2ccccc21 [NAPHTHOQUINONE] |  |  | 1.5 | Active | Active | inactive | Ki [13]: 7.7 µM; inhibition (INH) [14]: Active; Activity [15]: 50%; inhibition (INH) [16]: Active
